Assay results: patent US10954197B2, “Cathepsin-D and angiogenesis inhibitors and compositions thereof for treating breast cancer” (YOGEE'S BIOINNOVATIONS PRIVATE LIMITED, priority 2017, dated 2021)

SMILES | melting point
COc1ccc(Cl)cc1NC(=O)CSc1n[nH]c(CNc2cccc(C)c2)n1 [Example 1, N-(5-chloro-2-methoxyphenyl)-2-((5-((m-tolylamino)methyl)-1H-1,2,4-triazol-3-yl)thio)acetamide] | 40 to 42 °C
Cc1cccc(NCc2nc(SCC(=O)Nc3cccc(F)c3)n[nH]2)c1 [Example 3, N-(3-fluorophenyl)-2-((5-((m-tolylamino)methyl)-1H-1,2,4-triazol-3-yl)thio)acetamide] | 40 to 42 °C
COc1ccc(NC(=O)CSc2n[nH]c(CNc3cccc(C)c3)n2)cc1 [Example 5, N-(4-methoxyphenyl)-2-((5-((m-tolylamino)methyl)-1H-1,2,4-triazol-3-yl)thio)acetamide] | 40 to 42 °C
COc1cc(NC(=O)CSc2n[nH]c(CNc3cccc(C)c3)n2)cc(OC)c1 [Example 7, N-(3,5-dimethoxyphenyl)-2-((5-((m-tolylamino)methyl)-1H-1,2,4-triazol-3-yl)thio)acetamide] | 40 to 42 °C
Cc1cccc(NCc2nc(SCC(=O)Nc3cc(C(F)(F)F)ccc3Cl)n[nH]2)c1 [Example 8, N-(2-chloro-5-(trifluoromethyl)phenyl)-2-((5-((m-tolylamino)methyl)-1H-1,2,4-triazol-3-yl)thio)acetamide] | 40 to 42 °C
COc1ccc(NC(=O)CSc2n[nH]c(CNc3ccccc3)n2)cc1 [Example 12, N-(4-methoxyphenyl)-2-((5-((phenylamino)methyl)-1H-1,2,4-triazol-3-yl)thio)acetamide] | 40 to 42 °C
COc1cc(NC(=O)CSc2n[nH]c(CNc3ccccc3)n2)cc(OC)c1 [Example 14, N-(3,5-dimethoxyphenyl)-2-((5-((phenylamino)methyl)-1H-1,2,4-triazol-3-yl)thio)acetamide] | 40 to 42 °C
CC(=O)c1cccc(NC(=O)CSc2n[nH]c(NC(=S)NCc3ccccc3)n2)c1 [Example 18, N-(3-acetylphenyl)-2-((5-(3-benzylthioureido)-1H-1,2,4-triazol-3-yl)thio)acetamide] | 40 to 42 °C
O=C(CSc1n[nH]c(NC(=O)NCc2ccccc2)n1)Nc1ccc([N+](=O)[O-])cc1 [Example 19, 2-((5-(3-benzylureido)-1H-1,2,4-triazol-3-yl)thio)-N-(4-nitrophenyl)acetamide] | 40 to 42 °C
CC(=O)c1cccc(NC(=O)CSc2n[nH]c(NC(=O)NCc3ccccc3)n2)c1 [Example 20, N-(3-acetylphenyl)-2-((5-(3-benzylureido)-1H-1,2,4-triazol-3-yl)thio)acetamide] | 40 to 42 °C
Cc1cc([N+](=O)[O-])ccc1NC(=O)CSc1n[nH]c(NC(=O)NCc2ccccc2)n1 [Example 21, 2-((5-(3-benzylureido)-1H-1,2,4-triazol-3-yl)thio)-N-(2-methyl-4-nitrophenyl)acetamide] | 40 to 42 °C

Continued, values first:

melting point | SMILES
40 to 42 °C | Cc1cccc(NCc2nc(SCC(=O)Nc3ccccc3)n[nH]2)c1 [Example 2, N-Phenyl-2-((5-((m-tolylamino)methyl)-1H-1,2,4-triazol-3-yl)thio)acetamide]
40 to 42 °C | Cc1cccc(NCc2nc(SCC(=O)Nc3ccc(Cl)c(Cl)c3)n[nH]2)c1 [Example 6, N-(3,4-dichlorophenyl)-2-((5-((m-tolylamino)methyl)-1H-1,2,4-triazol-3-yl)thio)acetamide]
40 to 42 °C | O=C(CSc1n[nH]c(CNc2ccccc2)n1)Nc1ccccc1 [Example 9, N-phenyl-2-((5-((phenylamino)methyl)-1H-1,2,4-triazol-3-yl)thio)acetamide]
40 to 42 °C | O=C(CSc1n[nH]c(CNc2ccccc2)n1)Nc1cccc(F)c1 [Example 10, N-(3-fluorophenyl)-2-((5-((phenylamino)methyl)-1H-1,2,4-triazol-3-yl)thio)acetamide]
40 to 42 °C | O=C(CSc1n[nH]c(CNc2ccccc2)n1)Nc1cccc(Br)c1 [Example 11, N-(3-bromophenyl)-2-((5-((phenylamino)methyl)-1H-1,2,4-triazol-3-yl)thio)acetamide]
40 to 42 °C | O=C(CSc1n[nH]c(CNc2ccccc2)n1)Nc1ccc(Cl)c(Cl)c1 [Example 13, N-(3,4-dichlorophenyl)-2-((5-((phenylamino)methyl)-1H-1,2,4-triazol-3-yl)thio)acetamide]
